Laboratory results reported in US11066396B2 (priority 2016, dated 2021).
pIC50: −log10 of the molar value.

Target: HDAC1 (Homo sapiens (Human), UniProt Q13547)
Details: read-out: HDAC1 IC50
Protocol: Assay protocol: In brief, compounds were titrated in 100% DMSO via accoustic dispensing directly to the assay plate using the ECHO 550 [Labcyte]. HDAC enzymes at the concentrations indicated above were added in assay buffer to the assay plates containing the compounds using a Combi [Thermo Scientific]. The wells were mixed, and the plates were allowed to pre-incubate at ambient temperature for 3 h. After the 3 h, the appropriate substrate, at the concentrations indicated above, was added to the wells using a Combi. The wells were mixed, and the plates were allowed to incubate at ambient temperature for 1 h. After the 1 h, the appropriate Developer/stop solution was added to the wells using a Combi. The wells were mixed, and the plates were allowed to incubate at ambient temperature for 1 h. […] Data were analyzed using 4P curve fitting with Activity Base [IDBS] software.

Chain of HDAC1 (Q13547 whole entry): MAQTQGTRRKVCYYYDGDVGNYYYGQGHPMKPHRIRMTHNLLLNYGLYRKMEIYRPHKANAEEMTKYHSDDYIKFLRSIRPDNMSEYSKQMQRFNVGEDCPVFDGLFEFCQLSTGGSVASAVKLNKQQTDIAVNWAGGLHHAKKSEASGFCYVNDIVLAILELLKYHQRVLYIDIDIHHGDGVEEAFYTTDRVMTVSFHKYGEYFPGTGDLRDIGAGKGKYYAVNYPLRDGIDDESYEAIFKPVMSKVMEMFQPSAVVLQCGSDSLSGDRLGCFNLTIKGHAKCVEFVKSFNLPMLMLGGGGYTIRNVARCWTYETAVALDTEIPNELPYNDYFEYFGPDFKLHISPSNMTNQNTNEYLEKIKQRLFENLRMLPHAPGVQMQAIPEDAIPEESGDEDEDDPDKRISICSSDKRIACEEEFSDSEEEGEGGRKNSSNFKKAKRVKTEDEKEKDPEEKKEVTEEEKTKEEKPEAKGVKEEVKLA

SMILES	pIC50
O=C1Nc2ccc(F)cc2C1Cc1ccc(-c2noc(C(F)(F)F)n2)cc1 (racemic) [Example 193, 5-fluoro-3-{4-[5-(trifluoromethyl)-1,2,4-oxadiazol-3-yl]benzyl}-1,3-dihydro-2H-indol-2-one]	6.15
O=C1CCC(c2ccc(-c3noc(C(F)(F)F)n3)cc2)N1c1cccc(F)c1 (racemic) [Example 325, 1-(3-fluorophenyl)-5-{4-[5-(trifluoromethyl)-1,2,4-oxadiazol-3-yl]phenyl}pyrrolidin-2-one]	5.60
Cc1ccc2c3c(nn2c1)CCC(NCc1ccc(-c2noc(C(F)(F)F)n2)cc1)C3 (racemic) [Example 352, 8-methyl-N-({4-[5-(trifluoromethyl)-1,2,4-oxadiazol-3-yl]phenyl}methyl)-1,2,3,4-tetrahydropyrido[1,2-b]indazol-2-amine]	7.36
Cc1ccc2c3c(nn2c1)CCC(NCc1ccc(-c2noc(C(F)(F)F)n2)cc1)C3 (racemic) [Example 355, 8-methyl-N-({4-[5-(trifluoromethyl)-1,2,4-oxadiazol-3-yl]phenyl}methyl)-1,2,3,4-tetrahydropyrido[1,2-b]indazol-2-amine]	7.32
Cc1noc([C@H]2CCCCN2c2ccc(-c3noc(C(F)(F)F)n3)c(Cl)c2)n1 [Example 18, (R)-3-(2-Chloro-4-(2-(3-methyl-1,2,4-oxadiazol-5-yl)piperidin-1-yl)phenyl)-5-(trifluoromethyl)-1,2,4-oxadiazole]	< 4.82
O=C(NCc1ccc(-c2noc(C(F)(F)F)n2)cc1)c1cc(N2CCOCC2)ccn1 [Example 204, 4-morpholin-4-yl-N-{4-[5-(trifluoromethyl)-1,2,4-oxadiazol-3-yl]benzyl}pyridine-2-carboxamide]	6.00
O=C(NCc1ccc(-c2noc(C(F)(F)F)n2)cc1)c1cccc(O)c1 [Example 205, 3-hydroxy-N-{4-[5-(trifluoromethyl)-1,2,4-oxadiazol-3-yl]benzyl}benzamide]	6.14
CCn1cc(COc2cc(-c3noc(C(F)(F)F)n3)ccn2)c(C)n1 [Example 206, 2-[(1-ethyl-3-methyl-1H-pyrazol-4-yl)methoxy]-4-[5-(trifluoromethyl)-1,2,4-oxadiazol-3-yl]pyridine]	5.38
FC(F)(F)c1nc(-c2ccnc(OCc3c(Cl)nc4sccn34)c2)no1 [Example 208, 6-chloro-5-[({4-[5-(trifluoromethyl)-1,2,4-oxadiazol-3-yl]pyridin-2-yl}oxy)methyl]imidazo[2,1-b][1,3]thiazole]	5.51
FC(F)(F)c1nc(-c2ccnc(OCc3cc4n(n3)CCCO4)c2)no1 [Example 210, 2-[({4-[5-(trifluoromethyl)-1,2,4-oxadiazol-3-yl]pyridin-2-yl}oxy)methyl]-6,7-dihydro-5H-pyrazolo[5,1-b][1,3]oxazine]	5.92
Cc1cc(C)nc(COc2cc(-c3noc(C(F)(F)F)n3)ccn2)c1 [Example 211, 2,4-dimethyl-6-[({4-[5-(trifluoromethyl)-1,2,4-oxadiazol-3-yl]pyridin-2-yl}oxy)methyl]pyridine]	5.60
FC(F)(F)c1nc(-c2ccnc(OCc3ccnn3-c3cccnc3)c2)no1 [Example 212, 2-[(1-pyridin-3-yl-1H-pyrazol-5-yl)methoxy]-4-[5-(trifluoromethyl)-1,2,4-oxadiazol-3-yl]pyridine]	5.72
Cc1cnc(COc2cc(-c3noc(C(F)(F)F)n3)ccn2)cn1 [Example 213, 2-methyl-5-[({4-[5-(trifluoromethyl)-1,2,4-oxadiazol-3-yl]pyridin-2-yl}oxy)methyl]pyrazine]	5.72
FC(F)(F)c1nc(-c2ccnc(OCc3cnc(Cl)cn3)c2)no1 [Example 214, 2-chloro-5-[({4-[5-(trifluoromethyl)-1,2,4-oxadiazol-3-yl]pyridin-2-yl}oxy)methyl]pyrazine]	5.85
FC(F)(F)c1nc(-c2ccnc(OCc3cncc(Cl)n3)c2)no1 [Example 215, 2-chloro-6-[({4-[5-(trifluoromethyl)-1,2,4-oxadiazol-3-yl]pyridin-2-yl}oxy)methyl]pyrazine]	5.92
